Assay results: patent US20230265151A1, “GIP/GLP1 CO-AGONIST COMPOUNDS” (priority 2020, published 2023)
Where two headings read alike, the source gives them in different places. *1 amine or outer side, *2 acyl side, *3 side chain or, on linkers, in order; H or OH if unused. Where a SMILES comes first, the peptide text is derived from it. Side-chain parts run from the residue outwards. [ ]: non-standard residue; d: D form. The star is where a group is joined. Decanoyl(10-(4-HOOC-PhO)) = O=C(O)c1ccc(OCCCCCCCCCC(=O)*)cc1; αMePhe(2-F) = C[C@](N)(Cc1ccccc1F)C(=O)O; γGlu = O=C(O)[C@H](CCC(=O)[*:2])N[*:1]; αMeY = C[C@](N)(Cc1ccc(O)cc1)C(=O)O; αMeL = CC(C)C[C@](C)(N)C(=O)O; Orn = NCCC[C@H](N)C(=O)O; AEEA = NCCOCCOCC(=O)O; Aib = CC(C)(N)C(=O)O

Legend:
Type in all cases: cell-based
hGIPR = biological target: T1, hGIPR (Homo sapiens, UniProt P48546); experiment: Functional cAMP formation (HTRF) in HEK-293 clonal cells expressing hGIPR, 0.1% bovine casein, without or with 1.0% human serum albumin; conditions: for EC50: cAMP, 0.1% bovine casein (no human serum albumin), geometric mean
T1 construct: expressed in transfected cells
T1 sequence (P48546 22-466): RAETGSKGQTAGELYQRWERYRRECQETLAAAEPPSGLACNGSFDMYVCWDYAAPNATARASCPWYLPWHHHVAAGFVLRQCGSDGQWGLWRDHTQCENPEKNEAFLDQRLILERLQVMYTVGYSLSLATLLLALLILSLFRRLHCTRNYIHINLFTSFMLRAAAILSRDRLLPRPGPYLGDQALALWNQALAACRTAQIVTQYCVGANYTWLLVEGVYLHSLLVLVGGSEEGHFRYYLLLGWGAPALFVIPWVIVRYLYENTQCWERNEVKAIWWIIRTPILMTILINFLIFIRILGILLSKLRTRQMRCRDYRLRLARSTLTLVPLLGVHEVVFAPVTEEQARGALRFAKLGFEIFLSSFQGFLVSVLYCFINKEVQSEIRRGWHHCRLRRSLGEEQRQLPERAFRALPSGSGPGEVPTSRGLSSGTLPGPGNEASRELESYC
Outline: (§1)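 Cells were stimulated with peptide for 30 min at 37° C, then intracellular cAMP was measured by competitive HTRF (665/620 nm ratio) and converted to nM using a cAMP standard curve. Relative EC50 and Emax came from four-parameter logistic fits of percent maximal response against peptide concentration.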

hGCGR = biological target: T2, hGCGR (Homo sapiens, UniProt P47871); experiment: Functional cAMP formation (HTRF) in HEK-293 clonal cells expressing hGCGR, 0.1% bovine casein, without or with 1.0% human serum albumin
T2 construct: expressed in transfected cells
T2 sequence (P47871 26-477): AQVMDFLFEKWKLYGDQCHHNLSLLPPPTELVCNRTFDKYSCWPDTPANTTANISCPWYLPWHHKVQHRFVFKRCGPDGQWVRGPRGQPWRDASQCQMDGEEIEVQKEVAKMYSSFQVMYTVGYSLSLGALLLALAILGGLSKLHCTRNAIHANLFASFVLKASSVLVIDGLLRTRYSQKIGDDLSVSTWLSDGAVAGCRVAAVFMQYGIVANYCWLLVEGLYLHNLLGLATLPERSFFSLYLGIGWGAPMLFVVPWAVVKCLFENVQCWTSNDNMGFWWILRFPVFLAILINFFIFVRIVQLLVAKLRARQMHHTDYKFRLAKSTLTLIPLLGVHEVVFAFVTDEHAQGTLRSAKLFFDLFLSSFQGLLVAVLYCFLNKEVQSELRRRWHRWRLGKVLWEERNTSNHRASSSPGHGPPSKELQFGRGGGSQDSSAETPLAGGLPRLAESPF
Outline: as §1

hGLP-1R = hGLP-1R (Homo sapiens, UniProt P43220); experiment: Functional cAMP formation (HTRF) in HEK-293 clonal cells expressing hGLP-1R, 0.1% bovine casein, without or with 1.0% human serum albumin; parameters: expressed in transfected cells
hGLP-1R, sequence (P43220 24-463): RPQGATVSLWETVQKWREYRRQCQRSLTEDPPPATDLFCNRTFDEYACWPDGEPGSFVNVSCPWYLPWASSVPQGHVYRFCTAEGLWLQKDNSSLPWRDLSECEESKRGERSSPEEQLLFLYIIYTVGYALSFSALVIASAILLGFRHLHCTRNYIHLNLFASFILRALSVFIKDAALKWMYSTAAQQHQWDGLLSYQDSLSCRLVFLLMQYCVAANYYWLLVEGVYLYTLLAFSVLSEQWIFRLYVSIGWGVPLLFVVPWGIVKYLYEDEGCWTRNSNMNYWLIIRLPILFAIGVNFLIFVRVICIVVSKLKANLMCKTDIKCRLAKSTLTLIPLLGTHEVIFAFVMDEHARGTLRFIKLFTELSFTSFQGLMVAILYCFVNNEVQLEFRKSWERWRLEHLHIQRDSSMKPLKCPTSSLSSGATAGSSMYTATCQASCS
Outline: as §1

Row | SMILES | Emax (hGIPR; HEK293, 0.1% bovine casein and 1.0% human serum albumin, 37° C., percent of maximal response to GIP(1-42)NH2, read-out: hGIPR Emax, % ± SEM) [%] | Emax (hGIPR; HEK293, percent of maximal response to GIP(1-42)NH2, 37° C., 0.1% bovine casein, arithmetic mean, read-out: hGIPR Emax, % ± SEM) [%] | EC50 (hGIPR; incubated at 37° C., read-out: hGIPR EC50, nM (SEM, n)) [nM] | EC50 (hGCGR; 0.1% bovine casein and 1.0% human serum albumin, 37° C., geometric mean, read-out: hGCGR EC50, nM (SEM, n)) [nM] | EC50 (hGCGR; cAMP, incubated at 37° C., 0.1% bovine casein (no human serum albumin), geometric mean, read-out: hGCGR EC50, nM (SEM, n)) [nM] | EC50 (hGLP-1R; 0.1% bovine casein and 1.0% human serum albumin, 37° C., geometric mean, read-out: hGLP-1R EC50, nM (SEM, n)) [nM] | Emax (hGLP-1R; HEK293, 0.1% bovine casein and 1.0% human serum albumin, 37° C., percent of maximal response to GLP-1(7-36)NH2, read-out: hGLP-1R Emax, % ± SEM) [%] | Emax (hGLP-1R; HEK293, percent of maximal response to GLP-1(7-36)NH2, 37° C., 0.1% bovine casein, arithmetic mean, read-out: hGLP-1R Emax, % ± SEM) [%] | EC50 (hGLP-1R; cAMP, incubated at 37° C., 0.1% bovine casein (no human serum albumin), geometric mean, read-out: hGLP-1R EC50, nM (SEM, n)) [nM] | Emax (hGIPR; HEK293, read-out: hGIPR Emax, % ± SEM, cAMP, 37° C., 0.1% bovine casein and 1.0% human serum albumin, percent of maximal response to GIP(1-42)NH2) [%] | Emax (hGIPR; HEK293, read-out: hGIPR Emax, % ± SEM, cAMP, 37° C., 0.1% bovine casein, percent of maximal response to GIP(1-42)NH2, arithmetic mean) [%] | EC50 (hGIPR; hGIPR EC50, nM (SEM, n), 37° C.) [nM] | EC50 (hGCGR; hGCGR EC50, nM (SEM, n), cAMP, 37° C., 0.1% bovine casein (no human serum albumin), geometric mean) [nM] | EC50 (hGCGR; hGCGR EC50, nM (SEM, n), cAMP, 37° C., 0.1% bovine casein and 1.0% human serum albumin, geometric mean (SEM, n)) [nM] | Emax (hGLP-1R; HEK293, read-out: hGLP-1R Emax, % ± SEM, cAMP, 37° C., 0.1% bovine casein and 1.0% human serum albumin, percent of maximal response to GLP-1(7-36)NH2) [%] | Emax (hGLP-1R; HEK293, read-out: hGLP-1R Emax, % ± SEM, cAMP, 37° C., 0.1% bovine casein, percent of maximal response to GLP-1(7-36)NH2, arithmetic mean) [%] | EC50 (hGLP-1R; hGLP-1R EC50, nM (SEM, n), cAMP, 37° C., 0.1% bovine casein (no human serum albumin), geometric mean) [nM] | EC50 (hGLP-1R; hGLP-1R EC50, nM (SEM, n), cAMP, 37° C., 0.1% bovine casein and 1.0% human serum albumin, geometric mean (SEM, n)) [nM]
1 | CC[C@H](C)[C@H](NC(=O)[C@H](CCCN)NC(=O)[C@H](CC(=O)O)NC(=O)[C@H](CC(C)C)NC(=O)[C@](C)(CC(C)C)NC(=O)[C@@H](NC(=O)[C@](C)(CO)NC(=O)[C@H](Cc1ccncc1)NC(=O)[C@H](CC(=O)O)NC(=O)[C@H](CO)NC(=O)[C@@H](NC(=O)[C@](C)(Cc1ccccc1F)NC(=O)[C@@H](NC(=O)CNC(=O)[C@H](CCC(=O)O)NC(=O)C(C)(C)NC(=O)[C@@H](N)Cc1ccc(O)cc1)[C@@H](C)O)[C@@H](C)O)[C@@H](C)CC)C(=O)N[C@@H](C)C(=O)N[C@@H](CCC(N)=O)C(=O)NC(C)(C)C(=O)N[C@@H](CCC(=O)O)C(=O)N[C@@H](Cc1ccccc1)C(=O)N[C@H](C(=O)N[C@@H](CCCCNC(=O)COCCOCCNC(=O)COCCOCCNC(=O)CC[C@H](NC(=O)CCCCCCCCCCCCC(=O)O)C(=O)O)C(=O)N[C@@](C)(Cc1ccc(O)cc1)C(=O)N[C@@H](CC(C)C)C(=O)N[C@H](C(=O)N[C@@H](CCCCNC(=O)COCCOCCNC(=O)COCCOCCNC(=O)CC[C@H](NC(=O)CCCCCCCCCCCCC(=O)O)C(=O)O)C(=O)NCC(=O)NCC(=O)N1CCC[C@H]1C(=O)N[C@@H](CO)C(=O)N[C@@H](CO)C(=O)NCC(=O)N[C@@H](C)C(=O)N1CCC[C@H]1C(=O)N1CCC[C@H]1C(=O)N1CCC[C@H]1C(=O)N[C@@H](CO)C(N)=O)[C@@H](C)CC)[C@@H](C)CC [Example 216] | 63.4 | 88.5 | 0.0287 | > 9950 | > 9950 | 32.3 | 117 | 93.6 | 0.384 |  |  |  |  |  |  |  |  | 
2 | CC[C@H](C)[C@H](NC(=O)[C@H](CC(C)C)NC(=O)[C@](C)(Cc1ccc(O)cc1)NC(=O)[C@@H](CCC(=O)O)NC(=O)[C@@H](NC(=O)[C@H](Cc1ccccc1)NC(=O)[C@H](CCC(=O)O)NC(=O)C(C)(C)NC(=O)[C@H](CCC(N)=O)NC(=O)[C@H](C)NC(=O)[C@H](CCCCNC(=O)COCCOCCNC(=O)COCCOCCNC(=O)CC[C@H](NC(=O)CCCCCCCCCOc1ccc(C(=O)O)cc1)C(=O)O)NC(=O)[C@H](CCCN)NC(=O)[C@H](CC(=O)O)NC(=O)[C@H](CC(C)C)NC(=O)[C@](C)(CC(C)C)NC(=O)[C@@H](NC(=O)C(C)(C)NC(=O)[C@@H](NC(=O)[C@H](CC(=O)O)NC(=O)[C@H](CO)NC(=O)[C@@H](NC(=O)[C@](C)(Cc1ccccc1F)NC(=O)[C@@H](NC(=O)CNC(=O)[C@H](CCC(=O)O)NC(=O)C(C)(C)NC(=O)[C@@H](N)Cc1ccc(O)cc1)[C@@H](C)O)[C@@H](C)O)C(C)C)[C@@H](C)CC)[C@@H](C)CC)C(=O)N[C@@H](CCC(=O)O)C(=O)NCC(=O)NCC(=O)N1CCC[C@H]1C(=O)N[C@@H](CO)C(=O)N[C@@H](CO)C(=O)NCC(=O)N[C@@H](C)C(=O)N1CCC[C@H]1C(=O)N1CCC[C@H]1C(=O)N1CCC[C@H]1C(=O)N[C@@H](CO)C(=O)N[C@@H](CCCCNC(=O)COCCOCCNC(=O)COCCOCCNC(=O)CC[C@H](NC(=O)CCCCCCCCCOc1ccc(C(=O)O)cc1)C(=O)O)C(N)=O [Example 380] (H-Y[Aib]EGT[αMePhe(2-F)]TSDV[Aib]I[αMeL]LD[Orn]K([AEEA-AEEA-γGlu-Decanoyl(10-(4-HOOC-PhO))])AQ[Aib]EFI[dE][αMeY]LIEGGPSSGAPPPSK([AEEA-AEEA-γGlu-Decanoyl(10-(4-HOOC-PhO))])-NH2) |  |  |  |  |  |  |  |  |  | 93.5 | 100 | 0.0209 | > 9950 | > 9950 | 94.5 | 96.2 | 0.176 | 28
